Experimental data as given in PubChem BioAssay (NCI).
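Step 1: Grow cells in 96-well plates. Step 2: Expose to compound for 48 hours at 5 concentrations. Step 3: Interpolate endpoints linearly; if unreached, use highest concentration. TGI: total growth inhibition.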

Tests used:
Test in all cases: DTP human tumour cell line panel, 48 h
KM12 colon = system: KM12 colon
NCI-H226 lung = system: NCI-H226 lung
SR leukemia = system: SR leukemia
M14 melanoma = system: M14 melanoma
OVCAR-3 ovarian = system: OVCAR-3 ovarian
MALME-3M melanoma = system: MALME-3M melanoma
UO-31 renal = system: UO-31 renal
RXF 393 renal = system: RXF 393 renal
OVCAR-5 ovarian = system: OVCAR-5 ovarian
HCC-2998 colon = system: HCC-2998 colon

Structure (SMILES) | TGI (KM12 colon) [µM] | TGI (NCI-H226 lung) [µM] | TGI (SR leukemia) [µM] | TGI (M14 melanoma) [µM] | TGI (OVCAR-3 ovarian) [µM] | TGI (MALME-3M melanoma) [µM] | TGI (UO-31 renal) [µM] | TGI (RXF 393 renal) [µM] | TGI (OVCAR-5 ovarian) [µM] | TGI (HCC-2998 colon) [µM]
N#CCCC1(CCC#N)S(=O)(=O)OCCOS1(=O)=O | > 100 | > 100 | > 100 | > 100 | > 100 | > 100 | > 100 | > 100 | > 100 | 
CCC1(c2ccc(OC)c(OC)c2)CCN(S(=O)(=O)c2ccc(C)cc2)C1 (centres undefined) | > 100 | > 100 | > 10 | > 100 | > 100 |  | > 100 | > 100 | > 100 | > 100
COc1ccc2nc3c4c(nccc4c2c1)-c1ncccc1C3=O | 0.706 | 0.445 | 0.0189 | 0.29 | 0.0569 | 0.291 | 0.706 | 1.02 | 2.1 | 0.805
COC(=O)C(=O)C(C(=O)OC)C(=O)C(=O)Nc1cc(Cl)c(C)cc1S(=O)(=O)O (centres undefined) | > 100 | > 100 | > 100 | > 100 | > 100 | > 100 | > 100 | > 100 | > 100 | > 100
O=c1[nH][nH]c(=O)n1Cc1ccccc1 | > 100 | > 100 | > 100 | > 100 | > 100 | > 100 | > 100 | > 100 | > 100 | > 100
Cc1cc(C)c(NS(=O)c2ccc(Cl)cc2)c(C)c1 (centres undefined) | > 100 | > 100 | > 100 | > 100 | > 100 | > 100 | > 100 | > 100 | > 100 | > 100
COC(=O)c1cc(/C=C/C(=O)Cc2ccccc2)cn1S(=O)(=O)c1ccccc1 | > 100 |  | > 100 | > 100 | > 100 | > 100 | > 100 | > 100 | > 100 | > 100
C1=NN2C(c3ccccc3)=NOC2C2C(c3ccccc3)=NOC12 (centres undefined) | > 100 | > 100 |  | > 100 | > 100 | > 100 | > 100 | > 100 | > 100 | > 100
Cc1c2c(n3c(nc4ccccc43)c1C#N)N(c1ccc(F)cc1)CC2 |  | > 100 | > 100 |  | > 100 | > 100 | > 100 | > 100 | > 100 | > 100
Cc1ccc(S(=O)(=O)c2ccc(C)cc2[N+](=O)[O-])c([N+](=O)[O-])c1 | > 100 | > 100 | > 100 | > 100 | > 100 | > 100 | > 100 | > 100 | > 100 | > 100
CC(C)N(C(C)C)S(=O)(=O)CC12CCC(C/C1=N\O)C2 (centres undefined) | > 100 | > 100 | > 100 | > 100 | > 100 | > 100 | > 100 | > 100 | > 100 | > 100
Cc1c(-c2coc(-c3ccc([N+](=O)[O-])cc3)n2)c(=O)n(-c2ccccc2)n1C | > 100 | > 100 |  | > 100 | > 100 | > 100 | > 100 |  | > 100 | > 100
COP12(OC)NC(=O)OC1(C(F)(F)F)c1ccccc1O2 (centres undefined) | > 100 | > 100 |  | > 100 | > 100 | > 100 |  | > 100 |  | 
CC(C)CCNC(=O)c1ccc(CNC(=O)/C=C/c2ccc3ccccc3c2)cc1 | > 100 | > 100 | > 100 | > 100 | > 100 |  | > 100 | > 100 | > 100 | > 100
C1CSCCSCCSCCSCCS1 | > 100 | > 100 |  | > 100 | > 100 |  | > 100 | > 100 | > 100 | > 100
CN1C(=O)C(=Cc2ccc(Br)cc2)C(=O)N(C)C1=O | > 100 | > 100 |  | > 100 | > 100 |  | > 100 | > 100 | > 100 | > 100
COc1ccc(/C=C2/SC(=Nc3ccccc3)N(NC(=O)Cc3ccccc3)C2=O)cc1 | > 100 | > 100 |  | > 100 | > 100 |  | > 100 | > 100 | > 100 | > 100
O=c1cccccc1[O-].O=c1cccccc1[O-].O=c1cccccc1[O-].[Nd+3] | > 100 | > 100 |  | 87 | 38.2 | > 100 | > 100 | 50.2 | > 100 | > 100
Cc1cc2c(cc1Cl)SC(NNCCO)=NS2(=O)=O | > 100 | > 100 | > 100 | > 100 |  |  | > 100 | > 100 |  | > 100
N#Cc1c(-c2ccccc2)cn(C(=O)c2ccccc2)c1N | > 100 | > 100 | > 100 | > 100 | > 100 | > 100 | > 100 |  | > 100 | 0.0659
COc1ccccc1N1CCN(S(=O)(=O)c2ccc(Cl)cc2)C1=N | > 100 |  |  | > 100 | > 100 |  | > 100 | > 100 | > 100 | 
CN1CCS(=O)(=O)NC(Cc2ccccc2)C(=O)N2CCCC2C1=O (centres undefined) | > 100 | > 100 |  |  | > 100 | > 100 | > 100 |  | > 100 | > 100
c1ccc2c(c1)CCN1CCc3ccccc3C1C2 (centres undefined) | > 100 | 93.1 | > 100 | 82.1 | > 100 | > 100 | 68.9 |  | > 100 | > 100
CC(CC(=O)N1C2CC3CCC2(CS1(=O)=O)C3(C)C)[Si](C)(C)C (centres undefined) | > 100 | > 100 | > 100 | > 100 | > 100 | > 100 | > 100 | > 100 |  | > 100

Structure (SMILES) | TGI (KM12 colon) [µM] | TGI (NCI-H226 lung) [µM] | TGI (SR leukemia) [µM] | TGI (M14 melanoma) [µM] | TGI (OVCAR-3 ovarian) [µM] | TGI (MALME-3M melanoma) [µM] | TGI (UO-31 renal) [µM] | TGI (RXF 393 renal) [µM] | TGI (OVCAR-5 ovarian) [µM] | TGI (HCC-2998 colon) [µM]
COC(C)=NCCC1=CCCCC1 | > 100 |  | > 100 | > 100 | > 100 | > 100 | > 100 | > 100 | > 100 | > 100
c1ccc2cc(C3NCCc4[nH]cnc43)ccc2c1 (centres undefined) | 56.2 | > 100 | > 100 | > 100 | > 100 |  | > 100 | > 100 | > 100 | > 100
CC(=O)N1C(c2[nH]c3ccccc3c2Cc2ccccc2)CCN1c1ccccc1 (centres undefined) |  | > 10 | > 10 | > 10 | > 10 | > 10 | > 10 | > 10 | > 10 | > 10
O=C1CSC(c2ccccc2)N1c1ccc(-c2ccc(-n3c(-c4ccccc4)nc4ccccc4c3=O)cc2)cc1 (centres undefined) | > 100 |  | > 100 | > 100 | > 100 | > 100 | > 100 |  | > 100 | > 100
N#CCCC(C#N)(C#N)CCC#N | > 100 | > 100 | > 100 | > 100 | > 100 | > 100 | > 100 |  |  | > 100
CCOC(=O)/C=C(/C(=O)OCC)n1ccc(=O)n(Cc2cn(CCCCOC(C)=O)nn2)c1=O | > 100 | > 100 | > 100 |  | > 100 |  | > 100 | > 100 | > 100 | > 100
CN1N=C(c2ccncc2)OC1c1cccc(F)c1 (centres undefined) | > 100 | > 100 |  | > 100 | > 100 |  | > 100 | > 100 | > 100 | > 100
CC(=Nc1ccc(Cl)cc1)c1ccncc1 | > 100 | > 100 |  | > 100 | > 100 | > 100 | > 100 | > 100 | > 100 | > 100
Cc1n[nH]c(=O)n1/N=C/c1ccco1 | > 100 | > 100 |  | > 100 | > 100 | > 100 | > 100 | > 100 | > 100 | > 100
CCOC(=O)c1ccc(N=C2Sc3nc4ccccc4n3C2=Nc2ccc(C(=O)OCC)cc2)cc1 | > 100 | 73.8 |  | 37.1 | 53.4 | 51.8 |  | 59.3 | > 100 | > 100
COc1cc2ccnc(C#N)c2cc1OCc1ccccc1 | > 100 |  |  | > 100 | > 100 | > 100 | > 100 |  | > 100 | > 100
COc1cccc(CCn2c(N)c(-c3cc(Cl)cc(Cl)c3)c3ccc([N+](=O)[O-])cc3c2=O)c1 | > 100 | > 53.5 | > 64.8 | > 100 | > 100 | 32.6 | 25.5 |  | > 100 | > 31.6
COC1(OC)CCN(Cc2ccccc2)C1=O | 32.2 | 38.9 |  | 23 | 23.7 | > 100 | 22.8 | 26.4 | 31.8 | 34
COc1cc(-c2nc(N)c(C#N)c3c2CCS(=O)(=O)c2ccc(C)cc2-3)cc(OC)c1OC | > 100 | 51.1 | > 100 | > 100 | > 100 | > 100 | > 100 |  | > 100 | > 100
c1cc2c(cc1C1OCC3C(c4ccc5c(c4)OCO5)OCC13)OCO2 (centres undefined) | > 100 | > 100 |  | > 100 | > 100 | > 100 | > 100 | > 100 | > 100 | > 100
CN1CCCS/C1=C1/SC(=S)N(c2ccccc2)C1=O | > 100 | > 100 | > 100 | > 100 | > 100 | > 100 | > 100 | > 100 | > 100 | 
COc1ccc(S(=O)(=O)N/N=C(\C)CN2C(=O)c3ccccc3C2=O)cc1OC | > 100 | > 100 | > 100 | > 100 | > 100 | > 100 | > 100 |  | > 100 | > 100
NC(=O)C1=C(O)[C@@]2(O)C(=O)C3=C(O)c4c(O)cccc4CC3C[C@H]2CC1=O (some centres undefined) | 23.4 | 8.43 |  | 13.2 | 14.7 | 5.23 | 10.5 | 9.58 | 12.3 | 16.1
N#Cc1c(C#N)c(SSc2c(C#N)c(C#N)c(N)n2-c2cccc3ccccc23)n(-c2cccc3ccccc23)c1N | > 100 | 56.3 |  | 8.4 |  | 3.4 | 6.02 | 17.4 | 49.9 | 85.8
CC1(C)N=C(C(N)=O)c2ncn(Cc3ccccc3)c2N1 | > 100 | > 100 | > 100 | > 100 | > 100 | > 100 |  | > 100 | > 100 | > 100
O=C1CCC(=O)c2ccccc2N1 | > 100 | > 100 |  | > 100 | > 100 | > 100 | > 100 | > 100 | > 100 | > 100
COc1cc(C2C(C(=O)NCc3ccccc3)=C(C)NC(C)=C2C(=O)NCc2ccccc2)ccc1O |  | > 100 | 54.4 | > 100 | > 100 | > 100 | > 100 | 77.8 | > 100 | 51.6
COc1cc2c(cc1NC(=O)c1ccccc1)c1c(n2S(=O)(=O)c2ccccc2)CCN(S(=O)(=O)c2ccccc2)C1 | > 100 | > 100 | > 100 | > 100 | > 100 |  |  | > 100 | > 100 | > 100
CC1=CC2(C)C=C[C@@H]1C(=O)[C@@]1(C)CC[C@@](O)(C(C)C)[C@H]1CC2 | 41.7 | 43.8 |  | 35.8 | 32.2 | 36.2 | 31.4 | 43.5 | 34.6 | 34.6
